Marks after values point to notes of the source that are not given here.
Experiments:
COL3-rich fibres = target: T1, COL3-rich fibres (Mus musculus, UniProt P08121); experiment: Tissue co-localisation of fluorescent probe with COL3 fibres; design: species or system mice; conditions: murine model of vascular remodelling
T1 construct: Signal enhancement seen on the MRI coincided with COL3 fibres detected by histology; from tissue; host or cells: remodelled abdominal aortic wall of male ApoE-/- mice, in vivo and in excised sections
T1 sequence (P08121 155-1219 limits assumed): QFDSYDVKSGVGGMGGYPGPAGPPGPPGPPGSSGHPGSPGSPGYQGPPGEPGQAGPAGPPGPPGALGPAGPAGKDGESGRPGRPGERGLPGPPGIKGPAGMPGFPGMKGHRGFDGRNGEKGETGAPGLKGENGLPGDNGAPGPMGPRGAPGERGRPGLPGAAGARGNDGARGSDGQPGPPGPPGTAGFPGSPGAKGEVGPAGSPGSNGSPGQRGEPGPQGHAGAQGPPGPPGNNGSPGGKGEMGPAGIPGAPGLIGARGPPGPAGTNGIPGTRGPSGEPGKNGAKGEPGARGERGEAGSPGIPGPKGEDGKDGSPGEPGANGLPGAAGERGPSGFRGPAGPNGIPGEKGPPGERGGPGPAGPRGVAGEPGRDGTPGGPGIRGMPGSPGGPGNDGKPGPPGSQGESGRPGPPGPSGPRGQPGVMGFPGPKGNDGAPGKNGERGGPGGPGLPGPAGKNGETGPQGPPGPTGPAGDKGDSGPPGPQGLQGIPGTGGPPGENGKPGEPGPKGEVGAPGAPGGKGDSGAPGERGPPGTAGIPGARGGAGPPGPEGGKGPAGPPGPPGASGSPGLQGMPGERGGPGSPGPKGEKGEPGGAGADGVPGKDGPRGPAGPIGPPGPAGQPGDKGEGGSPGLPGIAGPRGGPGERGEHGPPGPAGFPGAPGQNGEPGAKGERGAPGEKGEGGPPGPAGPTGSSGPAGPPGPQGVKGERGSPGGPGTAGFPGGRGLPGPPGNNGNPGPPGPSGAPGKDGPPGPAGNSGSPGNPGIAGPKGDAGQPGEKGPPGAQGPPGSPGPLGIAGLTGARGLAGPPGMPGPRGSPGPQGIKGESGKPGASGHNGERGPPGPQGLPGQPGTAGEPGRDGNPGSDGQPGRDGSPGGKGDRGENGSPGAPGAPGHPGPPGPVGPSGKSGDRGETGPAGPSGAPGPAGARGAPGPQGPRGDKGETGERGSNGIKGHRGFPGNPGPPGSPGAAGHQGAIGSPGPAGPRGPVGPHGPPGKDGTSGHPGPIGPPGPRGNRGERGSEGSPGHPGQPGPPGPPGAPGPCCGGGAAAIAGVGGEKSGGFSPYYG
Text: (§1) The monomeric molecular probes ending with a N-terminus free DOTAMA chelator and with a C-terminus free carboxylic group were custom synthesised by Peptide Synthetics Ltd (Hampshire, United Kingdom) with a purity of >95%. The DOTAMA collagen-binding peptides were complexed in house with Gd(III) to obtain a contrast agent for MR molecular imaging, or with Eu(III) for in vitro binding studies using Time-Resolved Fluorescence (TRF) plate assays, or ^68Ga(III) for PET biodistribution studies. Metal complexation of the DOTAMA derivatives was performed in-house, by reacting the desired lanthanide ion (Gd^3+, Eu^3+) in a 1.05:1 L:M molar ratio at pH 5.5 and room temperature. Reaction evolution was confirmed by xylenol orange method. Upon reaction competition, the pH was adjusted to 7 and the samples were lyophilised and stored at −20 °C. The final concentration of the Gd(III) and Eu(III) complex solutions was assessed by ICP-OES and/or BMS. For tissue co-localisation experiments, the CBP1 was also synthesised in the fluorescently labelled form by conjugating a Rhodamine B derivative to its N-terminus (compound Rh-CBP1).

COL1 fibres = target: T2, COL1 fibres (Mus musculus, UniProt P11087+Q01149); experiment: Tissue co-localisation of fluorescent probe with COL1 fibres; design: species or system mice; conditions: aortic tissue, murine model of vascular remodelling
T2 construct: from tissue; host or cells: sections of the remodelled aortic wall of ApoE-/- mice
T2 sequence (P11087 152-1207 limits assumed): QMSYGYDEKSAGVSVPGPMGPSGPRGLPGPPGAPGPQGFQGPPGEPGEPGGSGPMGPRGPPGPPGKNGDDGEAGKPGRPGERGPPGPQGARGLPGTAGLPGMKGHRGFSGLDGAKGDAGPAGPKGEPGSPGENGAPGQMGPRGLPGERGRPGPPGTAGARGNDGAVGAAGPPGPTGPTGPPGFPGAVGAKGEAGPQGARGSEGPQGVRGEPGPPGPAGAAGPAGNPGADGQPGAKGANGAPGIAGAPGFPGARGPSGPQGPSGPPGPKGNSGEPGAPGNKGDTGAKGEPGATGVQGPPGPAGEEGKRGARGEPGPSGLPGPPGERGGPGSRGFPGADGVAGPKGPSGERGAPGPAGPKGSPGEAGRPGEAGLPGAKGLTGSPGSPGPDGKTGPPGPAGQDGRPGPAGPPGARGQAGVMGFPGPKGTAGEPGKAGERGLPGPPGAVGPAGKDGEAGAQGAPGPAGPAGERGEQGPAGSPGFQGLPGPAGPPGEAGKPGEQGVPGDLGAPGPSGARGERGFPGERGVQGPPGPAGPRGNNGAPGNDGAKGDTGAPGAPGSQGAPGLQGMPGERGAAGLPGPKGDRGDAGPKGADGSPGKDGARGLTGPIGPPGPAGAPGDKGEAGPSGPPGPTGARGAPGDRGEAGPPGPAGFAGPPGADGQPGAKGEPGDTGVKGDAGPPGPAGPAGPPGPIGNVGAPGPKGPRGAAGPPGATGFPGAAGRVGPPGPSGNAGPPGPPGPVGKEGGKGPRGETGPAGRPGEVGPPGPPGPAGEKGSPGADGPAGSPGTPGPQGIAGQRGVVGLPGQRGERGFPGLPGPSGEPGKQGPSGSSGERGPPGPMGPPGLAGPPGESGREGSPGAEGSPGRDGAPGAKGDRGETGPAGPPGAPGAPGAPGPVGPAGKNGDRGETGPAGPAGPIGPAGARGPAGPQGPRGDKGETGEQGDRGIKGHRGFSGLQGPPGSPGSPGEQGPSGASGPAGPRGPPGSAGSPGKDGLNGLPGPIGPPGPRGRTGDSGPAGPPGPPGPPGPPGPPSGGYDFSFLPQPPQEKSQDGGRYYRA
T2 sequence (Q01149 86-1125 limits assumed): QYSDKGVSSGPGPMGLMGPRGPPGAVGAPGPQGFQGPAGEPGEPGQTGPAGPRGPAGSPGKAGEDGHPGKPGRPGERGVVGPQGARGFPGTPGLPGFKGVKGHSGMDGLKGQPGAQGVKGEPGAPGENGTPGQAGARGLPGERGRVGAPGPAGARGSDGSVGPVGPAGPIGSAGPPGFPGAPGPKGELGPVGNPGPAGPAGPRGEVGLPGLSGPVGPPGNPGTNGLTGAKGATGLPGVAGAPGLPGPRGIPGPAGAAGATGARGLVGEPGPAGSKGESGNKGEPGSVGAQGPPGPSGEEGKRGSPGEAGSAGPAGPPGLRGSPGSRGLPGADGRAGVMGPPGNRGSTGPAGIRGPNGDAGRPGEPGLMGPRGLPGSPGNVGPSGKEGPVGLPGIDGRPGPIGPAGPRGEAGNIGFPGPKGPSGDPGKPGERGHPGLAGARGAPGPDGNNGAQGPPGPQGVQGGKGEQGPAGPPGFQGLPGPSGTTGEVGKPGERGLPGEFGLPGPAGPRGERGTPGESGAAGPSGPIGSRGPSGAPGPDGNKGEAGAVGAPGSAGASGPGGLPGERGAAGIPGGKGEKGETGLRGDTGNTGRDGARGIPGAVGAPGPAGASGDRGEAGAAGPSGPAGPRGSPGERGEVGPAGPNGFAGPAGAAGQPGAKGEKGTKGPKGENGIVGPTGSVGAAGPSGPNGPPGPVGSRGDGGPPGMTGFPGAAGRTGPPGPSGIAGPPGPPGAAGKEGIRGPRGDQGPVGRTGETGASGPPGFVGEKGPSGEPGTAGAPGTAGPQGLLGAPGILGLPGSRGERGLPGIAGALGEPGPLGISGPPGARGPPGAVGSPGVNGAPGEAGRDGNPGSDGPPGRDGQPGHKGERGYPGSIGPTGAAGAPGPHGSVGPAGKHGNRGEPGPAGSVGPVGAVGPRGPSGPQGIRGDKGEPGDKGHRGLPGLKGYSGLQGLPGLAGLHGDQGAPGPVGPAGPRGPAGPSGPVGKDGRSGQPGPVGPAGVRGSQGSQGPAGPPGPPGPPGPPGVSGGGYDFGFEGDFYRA
Text: as §1

COL3 = target: T3, COL3 (Mus musculus, UniProt P08121); experiment: Molecular CMR of COL3 in a murine model of myocardial infarction; format: in vivo, mice; conditions: control agents, i.v. 0.2 mmol/kg, 30 minutes post-injection, n = 2–3 per group
T3 construct: from tissue; host or cells: infarcted left-ventricular myocardium of female CD1 mice, in vivo
T3 sequence (P08121 155-1219 limits assumed): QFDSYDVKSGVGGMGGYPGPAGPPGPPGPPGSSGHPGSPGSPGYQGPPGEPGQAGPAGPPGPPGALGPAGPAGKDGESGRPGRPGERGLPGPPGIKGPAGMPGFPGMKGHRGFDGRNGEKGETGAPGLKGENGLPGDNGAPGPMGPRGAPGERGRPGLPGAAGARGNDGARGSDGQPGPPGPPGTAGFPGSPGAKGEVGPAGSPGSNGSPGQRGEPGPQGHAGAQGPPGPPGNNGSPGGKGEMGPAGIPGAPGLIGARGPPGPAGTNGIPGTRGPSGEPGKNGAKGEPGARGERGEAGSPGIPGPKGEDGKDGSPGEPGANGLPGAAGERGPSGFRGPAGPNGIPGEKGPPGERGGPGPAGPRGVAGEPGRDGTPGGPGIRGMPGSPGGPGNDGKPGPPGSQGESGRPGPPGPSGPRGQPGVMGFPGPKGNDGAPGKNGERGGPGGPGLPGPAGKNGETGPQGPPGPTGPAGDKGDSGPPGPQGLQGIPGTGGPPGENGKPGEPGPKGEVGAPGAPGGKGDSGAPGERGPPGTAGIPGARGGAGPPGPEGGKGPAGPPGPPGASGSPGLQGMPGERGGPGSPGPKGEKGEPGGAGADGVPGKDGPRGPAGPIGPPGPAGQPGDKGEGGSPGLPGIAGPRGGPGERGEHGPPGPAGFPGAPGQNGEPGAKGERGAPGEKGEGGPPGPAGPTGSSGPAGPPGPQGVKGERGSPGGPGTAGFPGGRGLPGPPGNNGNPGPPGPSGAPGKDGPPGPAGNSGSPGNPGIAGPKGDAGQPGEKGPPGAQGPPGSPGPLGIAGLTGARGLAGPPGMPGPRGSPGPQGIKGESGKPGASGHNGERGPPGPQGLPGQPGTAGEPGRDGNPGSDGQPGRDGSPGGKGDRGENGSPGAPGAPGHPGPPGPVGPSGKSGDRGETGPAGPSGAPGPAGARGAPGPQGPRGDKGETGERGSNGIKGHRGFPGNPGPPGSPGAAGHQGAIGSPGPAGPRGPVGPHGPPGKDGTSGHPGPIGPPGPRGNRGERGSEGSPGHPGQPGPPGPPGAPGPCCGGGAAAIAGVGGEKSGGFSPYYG

[1] = 20 MHz, 37 °C, cited from earlier work
Procedure: Table 1 Relaxivities of monomeric and tetrameric probes bearing CBP1 and CBP2 peptide moieties, in PBS and 0.6 mM human serum albumin (HAS) at 20 MHz and 37 °C | column: r1 mM (mM^−1 s^−1) / PBS; r1 mM (mM^−1 s^−1) / HSA 0.6 mM || To further characterise the molecular characteristics of these probes, the ^1H nuclear magnetic relaxation dispersion profiles (^1H-NMRD) of Gd-DOTAMA-CBP1, Gd-DOTAMA-CBP2 and [Gd-DOTAMA]4-CBP1 were acquired in phosphate buffer saline (PBS) and in 0.6 mM human serum albumin (HSA), at 25 and 37 °C (Supplementary Fig. 3a–c). The profiles obtained were characteristic of small-molecular weight (MW) complexes, even when in the presence of HSA. Table 1 summarises the relaxivity values at 20 MHz and 37 °C, for all probes and for Gadovist[45] a nonpeptide-based (non-targeted) clinically approved contr ...

| Compound | co-localisation with COL3-rich fibres within the remodelled aortic wall (in words) (COL3-rich fibres) | co-localisation to COL1 fibres (in words) (COL1 fibres) | signal enhancement in the infarct, both timepoints after MI (in words) (COL3) | r1 in PBS ([1]; column PBS) [mM⁻¹ s⁻¹] | r1 (column HSA 0.6 mM) ([1]; in non-sterile bovine plasma (albumin 0.64 to 0.82 mmol/L)) |
| --- | --- | --- | --- | --- | --- |
| DARKSEVQK [rhodamine-labelled CBP1 analogue probe, CBP1 in fluorescently labelled form, Rhodamine B derivative conjugated to its N-terminus] | co-localisation of the fluorescent probe with COL3-rich fibres | no co-localisation | – | – | – |
| O=C([O-])CN1CCN(CC(=O)[O-])CCN([C@H](CO)[C@H](O)CO)CCN(CC(=O)[O-])CC1.[Gd+3] (racemic) [Gadovist] | – | – | No enhancement | 3.7 | 6.1* mM^−1 s^−1 |

Source: publication PMC11408249, “Non-invasive in vivo imaging of changes in Collagen III turnover in myocardial fibrosis” (npj Imaging, 2024)
